Source: patent US10682427B2, “Intra-operative imaging” (BRACCO IMAGING S.P.A., priority 2014, dated 2020)
Several values for one entry are separate records, joined by “and”; a condition that tells them apart may be missing. Equal values may be shown once.

Legend:
[1] = system: rat orthotopic prostate tumor model Mat Ly-Lu; experiment: Fluorescence guided-surgery in rat prostate tumor model, visual classification validated by histology; assay type: in vivo, Copenhagen rats
Description: This example is aimed at assessing the sensitivity of the NIR RGD cyclic probe DA364 in the recognition of tumor masses using rat orthotopic prostate tumor model Mat Ly-Lu (a tumor with reduced expression of αvβ3 integrins, as illustrated below).
Intraoperative imaging was performed on a Zeiss system, a modified surgical microscope including appropriate filters for illumination and selection of signals emitted from the probe. Rat tumoral MatLyLu prostate cells were inoculated in the right ventral lobe of the prostate. Three-four days after inoculation animals were intravenously injected with a dose ranging from 5 to 20 nmol/rat of NIR fluorescent probe and imaged 24 hours after. Tumors have been then resected through fluorescent signal guide. Tissues surrounding the fluorescent area including tissues from the left prostate lobe was excised for histological comparison. All the samples were analysed through routine histological processing (Hematoxylin and eosin stain) and additional immune-labelling.
The experiment was performed on 10 Copenhagen rats (males) 11 weeks old, purchased from Harlan Laboratories Srl, S.Pietro al Natisone (UD), Italy. Rat prostate adenocarcinoma was induced in Copenhagen rats by orthotopic injection of the MatLylu tumor cells under isofluorane anesthesia. About 1 hour before tumor implantation, an analgesic (Rymadil) was administered subcutaneously (5 mg/kg) to rats. Then the lower abdomen was shaved and disinfected (Betadinen. A 12 mm incision of the abdominal wall along the linea Alba was performed 3 to 4 cm above the urinary orifice. The prostate was exposed after having pushed away the adipose tissue on each side of the animal.
A cell suspension (30 μL) containing 0.5×10^6 tumor cells was injected with a 27G needle into the right ventral lobe of the prostate. The muscular and cutaneous plan was sewed up with sterile non-resorbable thread (3-0 black silk, Distrex S.p.a.). The wound was painted with disinfectant solution Betadine®. The analgesic was also administered at least once after surgery (about 24 h after). All procedures involving the animals have been conducted according to national and international laws and policies for the Care and Use of Laboratory Animals (EEC Council Directive 86/609CEE; L.D. 116/92 and EEC Council Directive 2010/63/EU; L.D. 26/2014. Authorization n.149/2006-A issued Oct. 27, 2006 by the Italian Ministry of Health).
The tumor removal was performed using a dedicated surgical microscope (Axio Zoom v16, Carl Zeiss Beteiligungs GmbH, Jena, Germany). The microscope was equipped with a PLANAPO Z 0.5×/0.125 FWD 114 MM objective. During surgery an area of about 2.5×2.5 cm^2 was visualized. The surgical field was white-light illuminated by a cold light source (CL 9000 LED CAN (D)) when the fluorescence signal was not required, and by filtered light during the tumor removal (Illuminator: HXP 200C (D), filter set: 32 Cy 5.5 shift free (E)).
The day before surgery, corresponding to 3-4 days after tumor implantation, animals were administered with a dose of DA364 test agent ranging from 5 to 20 nmol/rat. Twenty-four hours after probes injection, animals were anaesthetized with isofluorane gas 0.5% (O2 99.5%), secured on the surgical table in the supine position and prostate tumor will be exposed.
After the removal of the prostatic capsule, the prostatic tumor was exposed to filtered light and fluorescence images were acquired to outline the primary tumor mass and the margins of the pathology (see FIG. 3, Panels A and D). The removal of the tumor mass was then carried out iteratively, by using fluorescence to guide the excision until absence of the fluorescent signal in the area surrounding tumor region (see FIG. 3, Panels B,E and C,F). Most of the fluorescent signal was confined in implantation area, i.e. the prostate right ventral lobe. […]

[2] = Fluorescence quantum yield with integrating sphere; assay type: physicochemical; details: excitation 625 nm, 15 min at RT
Description: Fluorescence quantum yields (0%) measurements were performed on FluoroLog-31IHR-320 (HORIBA-JobinYvon) with integrating sphere accessory.
The measurements were carried out using an excitation wavelength of 625 nm and using a 450W Xenon Light Source. Detection was performed on TBX-04 detector from 645 to 850 nm (excitation and emission slit were 1.8 nm).
The fluorescence quantum yield of DA364 solution was measured both in human serum SERONORM (human-based control serum), NycomedPhama, batch 1109514) and in Phosphate Buffer Saline (PBS).
Solutions of the NIR agent were prepared in PBS and in human serum with absorbance lower than 0.1. Fluorescence (0%) measurements were carried out after incubation of the NIR agent at Room Temperature (RT) for 15 min.

[3] = Ex vivo fluorescent signal in excised organs (IVIS Spectrum); set-up: species or system mice; details: 48 hours after 1 nmol i.v.
Description: Three weeks after A431 tumor implantation five mice were administered with 1 nmol of DA364 for a total administration volume of 0.2 mL (inj. rate 1 mL/min). In vivo OI acquisitions have been carried out 5 min, 15 min, 30 min, 1 h, 2 h, 3 h, 4 h, 6 h, 24 h and 48 hours after intravenous administration of the fluorescent probe using the IVIS Spectrum optical imaging system (Perkin Elmer). During OI experiments animals were kept under 3-4% Sevofluorane gas anaesthesia (O2 97.0-96.0%). During anaesthesia animals body temperature has been stabilized at about 37° C. using a heated bed.
Following in vivo OI experiments, 48 hours after probes injection, animals were sacrificed. Tumors, liver, kidneys, heart and spleen were excised for ex vivo fluorescent signal measure on the whole excised tumor or organ.
The fluorescent signal (expressed as Radiant Efficiency (RE): p/s/(μW/cm^2), where p is the photon count), was then measured on the excised ex vivo samples using the IVIS Spectrum optical imaging system (Perkin Elmer).

[4] = target: Human Serum Albumin (HSA) (Homo sapiens, UniProt P02768); experiment: In vitro binding assay towards human serum albumin (absorbance at 689 nm)
Description: Final solutions, containing 0.99 mM of the NIR agent and different amount of HSA, were incubated 1 h at room temperature before measurements. The absorbance of each solution was measured against a reference solution of HSA at the same concentration.

[5] = 5 to 20 nmol/rat i.v., surgery 24 h after, versus histology

Human Serum Albumin (HSA), sequence (P02768 25-609): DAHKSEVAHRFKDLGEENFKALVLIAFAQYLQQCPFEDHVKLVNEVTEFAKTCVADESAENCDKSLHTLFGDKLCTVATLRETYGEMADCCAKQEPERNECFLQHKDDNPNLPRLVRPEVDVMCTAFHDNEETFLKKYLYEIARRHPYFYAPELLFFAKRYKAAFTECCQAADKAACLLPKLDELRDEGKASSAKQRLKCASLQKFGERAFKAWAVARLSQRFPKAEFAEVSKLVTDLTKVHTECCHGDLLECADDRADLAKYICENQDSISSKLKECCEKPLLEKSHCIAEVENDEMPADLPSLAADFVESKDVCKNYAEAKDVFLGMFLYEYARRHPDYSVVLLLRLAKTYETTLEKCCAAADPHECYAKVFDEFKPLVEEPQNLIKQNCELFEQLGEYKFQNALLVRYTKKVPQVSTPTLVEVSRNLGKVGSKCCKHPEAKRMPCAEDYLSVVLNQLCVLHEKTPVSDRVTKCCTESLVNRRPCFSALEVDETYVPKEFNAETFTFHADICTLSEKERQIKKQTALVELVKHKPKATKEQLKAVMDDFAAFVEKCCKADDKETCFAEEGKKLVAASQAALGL

CC[N+]1=C(/C=C/C=C/C=C2/N(CCCCCC(=O)NC[C@@H]3C[C@@H]4CC[C@H]5C(=O)N[C@@H](CCCNC(=N)N)C(=O)NCC(=O)N[C@@H](CC(=O)O)C(=O)N[C@H]3C(=O)N45)c3ccc4c(S(=O)(=O)O)cc(S(=O)(=O)O)cc4c3C2(C)C)C(C)(C)c2c1ccc1c(S(=O)(=O)[O-])cc(S(=O)(=O)O)cc21 [DA364]
sensitivity of visual classification of tumor tissues [1, 5]: 87%
specificity of visual classification of tumor tissues [1, 5]: 83%
number of tissue samples, histology Negative ([1]; surgery class FLUORESCENT): 3
number of tissue samples, histology Positive ([1]; surgery class FLUORESCENT): 20
number of tissue samples, histology Negative ([1]; surgery class NON FLUORESCENT): 15
number of tissue samples, histology Positive ([1]; surgery class NON FLUORESCENT): 3
Φ% (fluorescence quantum yield) ([2]; PBS): 36.5% and 36.5 (SD 2.37) %
Φ% (fluorescence quantum yield) ([2]; SERONORM (human-based control serum)): 57.5% and 57.5 (SD 1.26) %
Fluorescence Signal (Radiant Efficiency) ([3]; excised heart ex vivo): 4.61E+07 p/s/(μW/cm^2)
Fluorescence Signal (Radiant Efficiency) ([3]; excised kidney ex vivo): 3.55E+08 p/s/(μW/cm^2)
Fluorescence Signal (Radiant Efficiency) ([3]; excised liver ex vivo): 4.04E+08 p/s/(μW/cm^2)
Fluorescence Signal (Radiant Efficiency) ([3]; excised spleen ex vivo): 5.79E+07 p/s/(μW/cm^2)
Kd [4]: 34.9 µM
association constant with HSA (ka) ([4]; PBS, 1 h at room temperature): 28670 ± 1140 M⁻¹
